Test results from patent US20100298141A1, “SUBSTITUTED PYRIDINE N-OXIDE HERBICIDES” (E. I. DU PONT DE NEMOURS AND COMPANY, priority 2007, published 2010).

Experiments:
corn = experiment: Test C pre-/postemergence test; type: in vivo, Zea mays
Method in brief: (§1)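 Compounds in a non-phytotoxic solvent with surfactant applied preemergence to seeded pots and, at the same time, postemergence to plants 2–18 cm tall (1- to 4-leaf stage). Paddy tests: pots flooded to 3 cm, compound applied into the water, depth held throughout.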

blackgrass = experiment: Test C pre-/postemergence test; type: in vivo, Alopecurus myosuroides
Method in brief: as §1

wheat = experiment: Test C pre-/postemergence test; type: in vivo, Triticum aestivum
Method in brief: as §1

[1] = test system: common (oilseed) sunflower; experiment: Test C pre-/postemergence test; type: in vivo, Helianthus annuus
Method in brief: as §1

Italian ryegrass = experiment: Test C pre-/postemergence test; type: in vivo, Lolium multiflorum
Method in brief: as §1

crabgrass = experiment: Test A pre-/postemergence greenhouse test; type: in vivo, Digitaria sanguinalis; conditions: for Plant response rating, Crabgrass, Large: 0 to 100 scale where 0 is no effect and 100 is complete control; for Crabgrass, Large plant response rating: 0 to 100 scale
Method in brief: (§2)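 Untreated controls served as the reference for visual injury ratings taken about ten days after spraying. The non-phytotoxic solvent/surfactant formulation was applied preemergence to seeded loam and sand and postemergence to plants two to ten cm high.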

morningglory = experiment: Test A pre-/postemergence greenhouse test; type: in vivo, Ipomoea spp.; conditions: for Plant response rating, Morningglory: 0 to 100 scale where 0 is no effect and 100 is complete control; for Morningglory plant response rating: 0 to 100 scale
Method in brief: as §2

woolly cupgrass = experiment: Test C pre-/postemergence test; type: in vivo, Eriochloa villosa
Method in brief: as §1

Goosegrass = experiment: Test C pre-/postemergence test; type: in vivo, Eleusin indica
Method in brief: as §1

green foxtail = experiment: Test C pre-/postemergence test; type: in vivo, Setaria viridis
Method in brief: as §1

eastern black nightshade = experiment: Test C pre-/postemergence test; type: in vivo, Solanum ptycanthum
Method in brief: as §1

umbrella sedge = experiment: Test C flooded paddy test; type: in vivo, Cyperus difformis; conditions: Flood
Method in brief: (§3)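 Ratings were visual and made relative to untreated controls after 13 to 15 greenhouse days.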

duck salad = experiment: Test C flooded paddy test; type: in vivo, Heteranthera limosa; conditions: Flood
Method in brief: as §3

common ragweed = experiment: Test C pre-/postemergence test; type: in vivo, Ambrosia elation; conditions: preemergence, scale 0 (no effect) to 100 (complete control)
Method in brief: as §1

wild oat = experiment: Test C pre-/postemergence test; type: in vivo, Avena fatua
Method in brief: as §1

yellow nutsedge = experiment: Test C pre-/postemergence test; type: in vivo, Cyperus esculentus
Method in brief: as §1

redroot pigweed = experiment: Test A pre-/postemergence greenhouse test; type: in vivo, Amaranthus retroflexus; conditions: for Plant response rating, Pigweed: 0 to 100 scale where 0 is no effect and 100 is complete control; for Pigweed plant response rating: 0 to 100 scale
Method in brief: as §2

[2] = 62 g ai/ha, Preemergence, scale 0 to 100
[3] = 125 g ai/ha, preemergence, scale 0 (no effect) to 100 (complete control)
[4] = Preemergence, 31 g ai/ha, scale 0 to 100 (0 no effect, 100 complete control)
[5] = preemergence, 250 g ai/ha, scale 0 (no effect) to 100 (complete control)
[6] = Postemergence, 500 g ai/ha, 0 is no effect, 100 is complete control
[7] = Preemergence, 125 g ai/ha, 0 no effect, 100 complete control
[8] = 62 g ai/ha, scale 0 to 100 (0 no effect, 100 complete control)
[9] = 250 g ai/ha, scale 0 to 100, 0 no effect, 100 complete control, 13 to 15 days

## CC(Oc1c(C[S+]([O-])c2ccc(Cl)c[n+]2[O-])c(C(F)(F)F)nn1C)C(F)(F)F (centres unmarked) [Compound 87]
corn; [2]
  Corn plant response rating: 95
corn; [3]
  Corn plant response rating: 95
corn; [4]
  Plant response rating, Corn: 85
corn; [5]
  Corn plant response rating: 98
blackgrass; [2]
  Blackgrass plant response rating: 100
blackgrass; [3]
  Blackgrass plant response rating: 100
blackgrass; [4]
  Plant response rating, Blackgrass: 100
blackgrass; [5]
  Blackgrass plant response rating: 100
wheat; [2]
  Wheat plant response rating: 60
wheat; [3]
  Wheat plant response rating: 85
wheat; [4]
  Plant response rating, Wheat: 30
wheat; [5]
  Wheat plant response rating: 85
[1]; [2]
  Sunflower plant response rating: 50
[1]; [3]
  Sunflower plant response rating: 55
[1]; [4]
  Plant response rating, Sunflower: 40
[1]; [5]
  Sunflower plant response rating: 70
Italian ryegrass; [2]
  Ryegrass, Italian plant response rating: 95
Italian ryegrass; [3]
  Ryegrass, Italian plant response rating: 100
Italian ryegrass; [4]
  Plant response rating, Ryegrass, Italian: 95
Italian ryegrass; [5]
  Ryegrass, Italian plant response rating: 100
crabgrass; Postemergence, 125 g ai/ha
  Plant response rating, Crabgrass, Large: 80
crabgrass; [6]
  Crabgrass, Large plant response rating: 90
crabgrass; [7]
  Crabgrass, Large plant response rating: 90
crabgrass; Preemergence, 500 g ai/ha
  Plant response rating, Crabgrass, Large: 100
morningglory; Postemergence, 125 g ai/ha
  Plant response rating, Morningglory: 40
morningglory; [6]
  Morningglory plant response rating: 100
morningglory; [7]
  Morningglory plant response rating: 20
morningglory; Preemergence, 500 g ai/ha
  Plant response rating, Morningglory: 100
Woolly cupgrass; [2]
  Cupgrass, Woolly plant response rating: 90
Woolly cupgrass; [3]
  Cupgrass, Woolly plant response rating: 98
Woolly cupgrass; [4]
  Plant response rating, Cupgrass, Woolly: 80
Woolly cupgrass; [5]
  Cupgrass, Woolly plant response rating: 100
Goosegrass; [2]
  Goosegrass plant response rating: 100
Goosegrass; [3]
  Goosegrass plant response rating: 100
Goosegrass; [4]
  Plant response rating, Goosegrass: 98
Goosegrass; [5]
  Goosegrass plant response rating: 100
Green foxtail; [2]
  Foxtail, Green plant response rating: 100
Green foxtail; [3]
  Foxtail, Green plant response rating: 100
Green foxtail; [4]
  Plant response rating, Foxtail, Green: 95
Green foxtail; [5]
  Foxtail, Green plant response rating: 100
Eastern black nightshade; [2]
  Nightshade plant response rating: 80
Eastern black nightshade; [3]
  Nightshade plant response rating: 95
Eastern black nightshade; [4]
  Plant response rating, Nightshade: 80
Eastern black nightshade; [5]
  Nightshade plant response rating: 100
Umbrella sedge; [8]
  Plant response rating, Sedge, Umbrella: 60
Umbrella sedge; [9]
  Plant response rating, Sedge, Umbrella: 95
Duck salad; [8]
  Plant response rating, Ducksalad: 50
Duck salad; [9]
  Plant response rating, Ducksalad: 100
Common ragweed; 125 g ai/ha
  Ragweed plant response rating: 70
Common ragweed; 250 g ai/ha
  Ragweed plant response rating: 80
Wild oat; [2]
  Oat, Wild plant response rating: 90
Wild oat; [3]
  Oat, Wild plant response rating: 90
Wild oat; [4]
  Plant response rating, Oat, Wild: 80
Wild oat; [5]
  Oat, Wild plant response rating: 100
Yellow nutsedge; [2]
  Nutsedge, Yellow plant response rating: 50
Yellow nutsedge; [3]
  Nutsedge, Yellow plant response rating: 80
Yellow nutsedge; [4]
  Plant response rating, Nutsedge, Yellow: 50
Yellow nutsedge; [5]
  Nutsedge, Yellow plant response rating: 100
Redroot pigweed; Postemergence, 125 g ai/ha
  Plant response rating, Pigweed: 50
Redroot pigweed; [6]
  Pigweed plant response rating: 100
Redroot pigweed; [7]
  Pigweed plant response rating: 90
Redroot pigweed; Preemergence, 500 g ai/ha
  Plant response rating, Pigweed: 100
